Reference: patent US20230339886A1 (University of Florida Research Foundation, Incorporated, priority 2020, published 2023)
Like-named read-outs stand apart in the source and are kept apart here.

Biological target: T1, REV-ERBα LBD (human; residues 281-614 Δ324-422) (Homo sapiens, UniProt P20393, DEL324-422)
T1 construct: 6×Histag-REV-ERBα LBD (human; residues 281-614 Δ324-422); made in house; host or cells: Escherichia coli
Assay: TR-FRET corepressor interaction assay (REV-ERBα LBD, FITC-SMRT peptide)
Type: biochemical
Description: TR-FRET corepressor interaction assay. The time-resolved fluorescence resonance energy transfer (TR-FRET) assay was performed in black low-volume 384-well plates (Greiner). […] Ligand stocks were prepared via serial dilution in DMSO, added to wells in triplicate, and plates were incubated at 4° C. for 2 h and read using a BioTek Synergy Neo multimode plate reader. The Tb donor was excited at 340 nm; its fluorescence emission was monitored at 495 nm, and the acceptor FITC emission was measured at 520 nm; and the TR-FRET ratio was calculated as the signal at 520 nm divided by the signal at 495 nm. Data were plotted using GraphPad Prism as TR-FRET ratio vs. ligand concentration and fit to sigmoidal dose response curve equation.

[1] = FITC-SMRT peptide, read-out: REVERBα agonism (EC50 class, FRET assay)
[2] = Table 2, read-out: REVERBα agonism (EC50 class, FRET assay)

T1 sequence (P20393 with tags, fused parts or gaps DEL324-422): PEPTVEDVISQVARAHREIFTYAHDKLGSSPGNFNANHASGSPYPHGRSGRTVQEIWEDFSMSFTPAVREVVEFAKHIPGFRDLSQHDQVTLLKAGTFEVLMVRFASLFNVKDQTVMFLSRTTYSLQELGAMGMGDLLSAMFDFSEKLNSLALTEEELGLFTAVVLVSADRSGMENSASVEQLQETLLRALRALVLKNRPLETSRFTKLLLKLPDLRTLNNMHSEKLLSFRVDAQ
T1 sequence (Q9Y618 2335-2356 partner limits assumed): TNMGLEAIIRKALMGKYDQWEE

| Compound | EC50 [1] [nM] | EC50 [2] [nM] |
| --- | --- | --- |
| CC(C)Cn1cc([C@H](NS(=O)(=O)C2CC2)C(F)(F)F)c2cc(F)c(-c3ccncn3)cc21 [Example 455, (S)—N-(2,2,2-trifluoro-1-(5-fluoro-1-isobutyl-6-(pyrimidin-4-yl)-1H-indol-3-yl)ethyl)cyclopropanesulfonamide] | < 500 |  |
| CC(C)(C)Cn1cc([C@H](NS(=O)(=O)C2CC2)C(F)(F)F)c2cc(F)c(-c3ccccc3)cc21 [Example 350, (S)—N-(2,2,2-trifluoro-1-(5-fluoro-1-neopentyl-6-phenyl-1H-indol-3-yl)ethyl)cyclopropanesulfonamide] |  | 500 to 3000 |
| CC(C)Cn1cc([C@H](NS(=O)(=O)C2CC2)C(F)(F)F)c2cc(F)c(-c3ccccc3Cl)cc21 [Example 314, (S)—N-(1-(6-(2-chlorophenyl)-5-fluoro-1-isobutyl-1H-indol-3-yl)-2,2,2-trifluoroethyl)cyclopropanesulfonamide] |  | < 500 |
| CC(C)Cn1cc([C@H](NS(=O)(=O)C2CC2)C(F)(F)F)c2cc(F)c(C3CC3)cc21 [Example 315, (S)—N-(1-(6-cyclopropyl-5-fluoro-1-isobutyl-1H-indol-3-yl)-2,2,2-trifluoroethyl)cyclopropanesulfonamide] |  | < 500 |
| CC(C)(C)Cn1cc([C@H](NS(=O)(=O)C2CC2)C(F)F)c2ccc(-c3c(C#N)cccc3C(F)(F)F)cc21 [Example 545, (S)—N-(1-(6-(2-cyano-6-(trifluoromethyl)phenyl)-1-neopentyl-1H-indol-3-yl)-2,2-difluoroethyl)cyclopropanesulfonamide] | < 500 |  |
| CC(C)(C)Cn1cc([C@H](NS(=O)(=O)C2CC2)C(F)F)c2ccc(-c3ccc(F)cc3C(F)(F)F)cc21 [Example 551, (S)—N-(2,2-difluoro-1-(6-(4-fluoro-2-(trifluoromethyl)phenyl)-1-neopentyl-1H-indol-3-yl)ethyl)cyclopropanesulfonamide] | < 500 |  |
| O=S(=O)(N[C@@H](c1cn(CC2CCCC2)c2cc(-c3ccccc3C(F)(F)F)c(F)cc12)C(F)(F)F)C1CC1 [Example 422, (S)—N-(1-(1-(cyclopentylmethyl)-5-fluoro-6-(2-(trifluoromethyl)phenyl)-1H-indol-3-yl)-2,2,2-trifluoroethyl)cyclopropanesulfonamide] |  | < 500 |
| CC(C)Cn1cc(CCS(=O)(=O)C(C)C)c2ccc(Br)cc21 [Compound 247] |  | 500 to 3000 |
| CC(C)(C)Cc1cn(CCNS(=O)(=O)C2CC2)c2ccc(-c3ccccn3)cc12 [Example 304, N-(2-(3-neopentyl-5-(pyridin-2-yl)-1H-indol-1-yl)ethyl)cyclopropanesulfonamide] |  | 500 to 3000 |
| CC(C)Cn1cc([C@H](NS(=O)(=O)C2CC2)C(F)(F)F)c2ccc(-c3ccccc3Cl)cc21 [Example 311, (S)—N-(1-(6-(2-chlorophenyl)-1-isobutyl-1H-indol-3-yl)-2,2,2-trifluoroethyl)cyclopropanesulfonamide] |  | < 500 |
| Cc1c(CCNS(=O)(=O)N(C)C)c2ccc(-c3ccncc3)cc2n1CC(C)C [Compound 236] |  | 500 to 3000 |
| CN(C)S(=O)(=O)NCCc1cn(Cc2ccc(F)cc2F)c2cc(-c3ccncc3)ccc12 [Example 149, N-{2-[6-(pyridin-4-yl)-1-(2,4-difluorobenzyl)-1H-indol-3-yl]ethyl}-N,N-dimethylsulfuric diamide] |  | 500 to 3000 |
| CC(C)(C)Cn1cc([C@H](CF)NS(=O)(=O)C2CCC2)c2ccc(-c3ccccc3C(F)(F)F)cc21 [Example 429, (R)—N-(2-fluoro-1-(1-neopentyl-6-(2-(trifluoromethyl)phenyl)-1H-indol-3-yl)ethyl)cyclobutanesulfonamide] | < 500 |  |
| CN(C)S(=O)(=O)NCCc1cn(Cc2cccnc2)c2cc(Br)ccc12 [Example 163, [(2-{6-bromo-1-[(pyridin-3-yl)methyl]-1H-indol-3-yl}ethyl)sulfamoyl]dimethylamine] |  | 500 to 3000 |
| CC(C)Cn1cc(CCNS(=O)(=O)N(C)C)c2ccc(-n3cccn3)cc21 [Example 92, N-{2-[6-(1H-pyrazol-1-yl)-1-(2-methylpropyl)-1H-indol-3-yl]ethyl}-N,N-dimethylsulfuric diamide] |  | 500 to 3000 |
